According to patent publication US11162063B2, “Methods and apparatus for conditioning cell populations for cell therapies” (THE BOARD OF REGENTS OF THE UNIVERSITY OF TEXAS SYSTEM, priority 2015, dated 2021):
Entries after “also recorded” stand apart in the source; their conditions may differ.

Experiments:
human amniotic fluid MSC = assay: Priming agents combined with shear stress, anti-inflammatory signaling in hAF MSC; assay type: cell-based
Protocol: FIG. 24 illustrates that priming agents complement shear-induced anti-inflammatory signaling. Darkened bars represent treatment combinations that indicate a substantial induction of the pathway by shear stress and cytokines (IFN-γ, 20 ng/ml; TNF-α, 50 ng/ml). In this low-performance human amniotic MSC line, TSG6 was induced by shear stress only. IDO was induced by IFN-γ only. hAF MSC, human amniotic fluid MSC.
(§1) Similarly it was determined utilizing commercially available ELISAs that the media from human MSCs cultures that had been subject to fluid shear stress also contained immunomodulatory proteins, such as prostaglandin E2. In addition, Western blotting confirmed elevated protein levels (translation) of COX2, TSG6, and IL1RN. Actin protein expression levels, which are constant, were used as a control for baseline protein expression. […] It was also determined that this induction could be abrogated by the addition of 10 uM of the NF-kappaB antagonist BAY11-7085 (FIG. 21). Furthermore by utilizing commercially available ELISAs, it was determined that the media from human MSCs cultures that had been subject to fluid shear stress for as little as 3 hours had immunosuppressive activity, as evidenced by the 10-50% reduction in TNF-α when treated hMSCs were co-cultured with activated immune cells from the spleen (FIG. 22).

[1] = test system: TNF-α secretion by activated splenocytes; assay: TNF-α cytokine suppression assay, MSC co-culture with LPS or PHA-activated splenocytes; assay type: cell-based, mouse; conditions: 10 μM; for effect on the ability of shear treated MSC to suppress TNF-α production: six MSC donor lines
Source text: FIG. 22 illustrates TNF-α cytokine suppression assays that highlight functional enhancement of MSC immunomodulation. Human MSCs preconditioned by mechanical force (15 dyne/cm2 shear stress for 3 hrs) are placed in static co-culture with lipopoly-saccharide (LPS) or phytohaemagglutinin (PHA)-activated splenocytes including macrophages, neutrophils, NK, B, and T cells. […] Lower values correspond to greater anti-inflammatory potency. hBM MSC, human bone marrow MSC; hAF MSC, amniotic fluid MSC (indicated by a “*” in graph); hAD MSC, adipose-derived MSC (indicated by a “^” in graph). P-values calculated by paired t-test, equal variance.
as §1

[2] = test system: COX2 protein in human MSC; assay: Western blot of intracellular COX2 protein in shear stressed MSCs; assay type: cell-based; conditions: 10 μM, 8 hours of fluid shear stress
Protocol: A pilot study was conducted to provide proof of principle that fluid shear stress can be used to condition stem cells, alter gene expression, and enhance functional activities. To exemplify the conditioning activity of shear stress of the type provided by the present system, but on a much smaller analytical scale, force (shear stress) was applied using custom fabricated slides or IBIDI® small-scale microfluidics channel slides obtained from IBIDI, LLC. (Verona, Wis., USA). Human samples were harvested from bone marrow (BM), amniotic fluid (AF), or adipose (AD) tissue, processed for isolation and expansion of hMSC, and stored frozen. Frozen hMSCs were thawed and seeded into T225 cell culture flasks with 50 ml Minimum Essential Medium (MEM-α) (20% FBS, 5% Penicillin/Streptomycin, 5% Glutamine). The media was replaced every 3-4 days. hMSCs were maintained in culture until they were almost 100% confluent. […] The number of live cells present was determined using trypan blue dye exclusion. Live cell counts were determined on a hemacytometer and the cells were resuspended to obtain the desired concentration for each assay (see Table 1). […]
Similarly it was determined utilizing commercially available ELISAs that the media from human MSCs cultures that had been subject to fluid shear stress also contained immunomodulatory proteins, such as prostaglandin E2. […]

Compound: IFN-γ: cytokine priming agent, 20 ng/ml
- induction of COX2 and HMOX1 in sheared MSCs with added priming agent (human amniotic fluid MSC; IFN-γ 20 ng/ml plus shear stress): greater induction
- IDO induction (human amniotic fluid MSC; IFN-γ 20 ng/ml, low-performance human amniotic MSC line): induced

Compound: CCCCC(C)(C)C(O)C=CC1C(O)CC(=O)C1CC=CCCCC(=O)O (stereo not shown) [dmPGE2, 16,16′-dimethyl prostaglandin E2]
- effect of ectopic agent on TNF-α production ([1]; compared with sheared MSCs): reduced TNF-α to levels produced in the presence of sheared MSCs; also recorded: mimics MSC suppression

Compound: CC(C)(C)c1ccc(S(=O)(=O)/C=C/C#N)cc1 [BAY11-7085]
- effect on shear-induced COX2 protein [2]: abrogated; also recorded: reduced
- effect on the ability of shear treated MSC to suppress TNF-α production [1]: abrogate the positive effects of shear stress

Compound: CS(=O)(=O)Nc1ccc([N+](=O)[O-])cc1OC1CCCCC1 [NS-398]
- effect on the ability of shear treated MSC to suppress TNF-α production [1]: abrogate the positive effects of shear stress

Compound: COc1ccc2c(c1)c(CC(=O)O)c(C)n2C(=O)c1ccc(Cl)cc1 [Indomethacin]
- effect on the ability of shear treated MSC to suppress TNF-α production [1]: abrogate the positive effects of shear stress
